From patent publication US10703717B2, “Water-soluble isatin derivative, and manufacturing method and application thereof” (TIANJIN UNIVERSITY OF SCIENCE & TECHNOLOGY, priority 2016, dated 2020)

How the values were obtained:
Water solubility = type: physicochemical; conditions: for water solubility, in words: summary of table 1
K562 cells = test: In-vitro anti-tumor activity, MTT assay, human leukemia K562 cells; type: cell-based; conditions: 48 h
Protocol: (§1) Anti-Tumor Activity Determination Method
(§2) Preparation of PBS buffer: Sodium chloride 8 g, potassium chloride 0.2 g, disodium hydrogen phosphate dodecahydrate 2.9 g, potassium dihydrogen phosphate 0.2 g and purified water 800 mL were placed into a 1000 mL conical flask, the mixture was stirred and dissolved to a volume of 1000 mL. After autoclaving, PBS buffer was stored in a refrigerator at 4° C.
(§3) Preparation of MTT solution: 0.5 g MTT dry powder was dissolved in 100 mL PBS buffer. After sterilizing by filtration through a […] filter, it was stored in a refrigerator at −12° C.
(§4) Three kinds of tumor cells were used in the antitumor activity assay of the present invention: human liver cancer cells (HepG2), human leukemia cells (K562) and human colon cancer cells (HCT116).
Activity test using human leukemia K562 cells
The human leukemia cells (K562) were grown in RPMI1640 medium supplemented with 10% fetal bovine serum, 1% penicillin/streptomycin and were cultured in an incubator of 5% CO2 at 37° C.
The method comprises the following steps:
(1) After counting the cells with a hemocytometer, dilute it to a density of 5×10^4 cells/mL with RPMI1640 medium;
(2) 100 μl cell suspension was added in each well of 96-well plates and incubated at 37° C. for 2 h;
(§5) (3) The compound to be tested was diluted to five concentrations: 2 mM, 200 μM, 20 μM, 2 μM, 0.2 μM. Then, 0.5 μL compound of different concentrations was added to the well and incubated at 37° C. for another 48 h;
(§6) (4) MTT (5 mg/ml) was added to each well and the plate was further incubated for 4 h at 37° C.;
(5) Dissolving the cells with DMSO, and the OD values were measured at 570 nm and 630 nm by a microplate reader;
(6) Process the data by calculating the IC50 value based on the OD values.

HepG2 cells = test: In-vitro anti-tumor activity, MTT assay, human liver cancer HepG2 cells; type: cell-based; conditions: 48 h
Protocol: as §1
(§7) Preparation of low glucose DMEM medium: MEM medium (Hyclone) was purchased with low glucose, 500 mL per bottle, 10% fetal bovine serum and 1% streptomycin solution were added in it. That is, 50 mL of fetal bovine serum and 5 mL of streptomycin were added to each flask of the medium. The preparation of the medium was carried out in an ultra-clean workbench and stored in a refrigerator at 4° C.
as §2, §3, §4
Activity Test Using Human Liver Cancer HepG2 Cells
The human liver cancer cells (HepG2) were grown in DMEM medium supplemented with 10% fetal bovine serum, 1% penicillin/streptomycin and were cultured in an incubator of 5% CO2 at 37° C. The method comprises the following steps:
(1) After counting the cells with a hemocytometer, dilute it to a density of 5×10^4 cells/mL with low glucose DMEM medium;
(§8) (2) 100 μl cell suspension was added in each well of 96-well plates and incubated at 37° C. for 24 h;
as §5, §6
(§9) (5) Dissolving the cells with DMSO, and the OD values were measured at 490 nm and 630 nm by a microplate reader; […]

HCT116 cells = test: In-vitro anti-tumor activity, MTT assay, human colon cancer HCT116 cells; type: cell-based; conditions: HCT-116, 48 h
Protocol: as §1
as §7, with “DMEM/F-12” for “low glucose DMEM”, “MEM/F-12” for “MEM”, “purchased,” for “purchased with low glucose,”
as §2, §3, §4
Activity test using human colon cancer HCT116 cells
The human colon cancer cells (HCT116) were grown in DMEM/F-12 medium supplemented with 10% fetal bovine serum, 1% penicillin/streptomycin and were cultured in an incubator of 5% CO2 at 37° C. The method comprises the following steps:
(1) After counting the cells with a hemocytometer, dilute it to a density of 5×10^4 cells/mL with DMEM/F-12 medium;
as §8
(3) The compound to be tested was diluted to five concentrations: 2 mM, 200 μM, 20 μM, 2 μM, 0.2 μM. Then, 0.5 μL compound of different concentrations was added to each well and incubated at 37° C. for another 48 h;
(4) MTT (5 mg/ml) was added to the well and the plate was further incubated for 4 h at 37° C.;
as §9

[1] = system: tumor cells (HepG2, K562, HCT116); test: In-vitro anti-tumor activity, summary in words over the three tumor cell lines; type: cell-based, human; conditions: summary of table 1; for cytotoxic / anti-tumor activity, in words: compared with precursor/parent compound
Excerpt: as §1, §4

| Structure (SMILES) | Water solubility (Water solubility) | IC50 (K562 cells) [nM] | IC50 (HepG2 cells) [nM] | IC50 (HCT116 cells) [nM] | water solubility, in words (Water solubility) | cytotoxic / anti-tumor activity, in words [1] | activity compared with positive reference substance camptothecin [1] |
| --- | --- | --- | --- | --- | --- | --- | --- |
| CC[C@@]1(O)C(=O)OCc2c1cc1n(c2=O)Cc2cc3ccccc3nc2-1 [CPT, camptothecin, reference compound] | insoluble | 100 to 1000 | 100 to 1000 | 100 to 1000 | – | – | – |
| COc1ccc(CN2C(=O)C(=O)c3cc(-c4ccc(O)c(CN(C)C)c4)ccc32)cc1 [Compound 1] | >10 g/100 g | 1000 to 10000 | 1000 to 10000 | 1000 to 10000 | obviously improved | still retains certain cytotoxic activity | – |
| COC(=O)/C=C/c1ccc2c(c1)C(=O)C(=O)N2Cc1ccc(O)c(CN(C)C)c1 [Compound 2] | >10 g/100 g | < 10 | 1000 to 10000 | < 10 | obviously improved | greatly improved | superior |
